Among the data in patent US20230012560A1, “HEPATITIS B ANTIVIRAL AGENTS” (TAIGEN BIOTECHNOLOGY CO., LTD., priority 2019, published 2023) are EC50 values, retold here.

The subject of this experiment is HBV (HepAD38 cells). The experiment can be described thus: Real-Time PCR Assay (extracellular HBV DNA from HepAD38 culture supernatants). The experiment is classed as cell-based. The note with it: Hepatitis B virus, 120 h, compound treatment for 5 days without tetracycline, extracellular DNA in culture supernatant quantified by real-time PCR, read-out: EC50 (50% effective concentration). As for the experimental part: HepAD38 cells were seeded and cultured on 96-well plates. After incubation for 2 days, cells were fed with compound-containing media without tetracycline. After compound treatment for 5 days, culture supernatants were collected. Extracellular DNA was then extracted using LabTurbo DNA mini kit, and quantified by real-time PCR.
Real-time PCR was performed using an ABI QuantStudio 3 system in a 96-well optical plate format. The PCR mixture containing forward primer (5′-[…]-3′) (SEQ ID NO.1), reverse primer (5′-GGTGAGTGATTGGAGGTTG-3′) (SEQ ID NO.2) and Luna Universal qPCR Master Mix in a final volume of 24 μl was incubated at 95° C. for 10 min followed by 45 cycle of incubation at 95° C. for 10 s and 60° C. for 10 s. Regression analysis was performed using GraphPad Prism 5 to calculate the 50% effective concentration (EC50) values.

Some results are limits rather than exact numbers.

For the compound `CCNC(=O)C(=O)NC1CCN(S(=O)(=O)c2cn(C)c(C(=O)Nc3cc(F)c(F)c(F)c3)c2F)CC1` [Compound 63], the EC50 was 100 to 300 nM.
The figure for `Cn1cc(S(=O)(=O)N[C@@H]2CCN(C(=O)C(=O)NC3COC3)C2)c(F)c1C(=O)Nc1cc(F)c(F)c(F)c1` [Compound 36] is less than 100 nM; for `CNS(=O)(=O)N1CC[C@@H](NS(=O)(=O)c2c(F)c(C(=O)Nc3ccc(F)c(F)c3)n3c2CCCC3)C1` [Compound 11] it is 100 to 300 nM; for `CCNC(=O)C(=O)N1CCC(NS(=O)(=O)c2cn(C)c(C(=O)Nc3ccc(F)c(C)c3)c2F)CC1` [Compound 71] it is less than 100 nM.
Under `CCNC(=O)C(=O)N1CCC(NS(=O)(=O)c2c(C)c(C(=O)Nc3cc(F)c(F)c(F)c3)n3c2CCC3)CC1` [Compound 79] stands 300 to 1000 nM; under `CNS(=O)(=O)NC1CCN(S(=O)(=O)c2cn(C)c(C(=O)Nc3cc(F)c(F)c(F)c3)c2F)CC1` [Compound 62], 300 to 1000 nM.
Under `CCONC(=O)C(=O)N1CC[C@@H](NS(=O)(=O)c2cn(C)c(C(=O)Nc3cc(F)c(F)c(F)c3)c2F)C1` [Compound 35] stands less than 100 nM; under `CNS(=O)(=O)N1CC[C@@H](NS(=O)(=O)c2c(F)c(C(=O)Nc3ccc(F)c(F)c3)n(C)c2Br)C1` [Compound 8], less than 100 nM; under `CCNC(=O)C(=O)N1CCC(NS(=O)(=O)c2cn(C)c(C(=O)Nc3cc(F)c(F)c(F)c3)c2F)CC1` [Compound 69], less than 100 nM.
For the compound `CNC(=O)C(=O)N1CC[C@@H](NS(=O)(=O)c2c(F)c(C(=O)Nc3cc(F)c(F)c(F)c3)n(C)c2Cl)C1` [Compound 43], the EC50 was less than 100 nM.
As to `CCNC(=O)C(=O)N1CCC(NS(=O)(=O)c2cn(C)c(C(=O)Nc3ccc(F)c(F)c3)c2F)C(C)C1` (stereo not drawn) [Compound 83], the EC50 was less than 100 nM.
Under `CNS(=O)(=O)N1CCN(S(=O)(=O)c2cn(C)c(C(=O)Nc3cc(F)c(F)c(F)c3)c2F)CC1` [Compound 66] stands 100 to 300 nM; under `CNS(=O)(=O)N1CC[C@@H](NS(=O)(=O)c2c(F)c(C(=O)Nc3ccc(F)c(F)c3)n3c2CCC3)C1` [Compound 10], less than 100 nM.
The figure for `CCn1cc(S(=O)(=O)N[C@@H]2CCCN(S(=O)(=O)NC)C2)c(F)c1C(=O)Nc1ccc(F)c(F)c1` [Compound 22] is less than 100 nM.
The figure for `Cn1cc(S(=O)(=O)N[C@@H]2CCN(C(=O)C(=O)NC3CC3)C2)c(F)c1C(=O)Nc1ccc(F)c(F)c1` [Compound 33] is less than 100 nM; for `CCNC(=O)C(=O)N1CCC(NS(=O)(=O)c2cn(C)c(C(=O)Nc3ccc(F)c(Cl)c3F)c2F)CC1` [Compound 74] it is less than 100 nM; for `COCCS(=O)(=O)N1CC[C@@H](NS(=O)(=O)c2cn(C)c(C(=O)Nc3ccc(F)c(F)c3)c2F)C1` [Compound 4] it is less than 100 nM.
With `CCNC(=O)C(=O)N1CCC2(NS(=O)(=O)c3cn(C)c(C(=O)Nc4cc(F)c(F)c(F)c4)c3F)CC2C1` (stereo not drawn) [Compound 85], the EC50 was less than 100 nM.
The figure for `CCNC(=O)C(=O)N1CCC(NS(=O)(=O)c2cn(C)c(C(=O)Nc3cccc(Cl)c3)c2F)CC1` [Compound 72] is less than 100 nM.
The figure for `CNS(=O)(=O)N1CCC[C@@H](NS(=O)(=O)c2cn(C)c(C(=O)Nc3cccc(C(F)(F)F)c3)c2F)C1` [Compound 21] is less than 100 nM.
In the case of `CNC(=O)C(=O)N1CC[C@@H](NS(=O)(=O)c2cn(CC3CC3)c(C(=O)Nc3ccc(F)c(F)c3)c2F)C1` [Compound 50], the EC50 lay within 100 to 300 nM.
The figure for `CCCNC(=O)C(=O)N1CC[C@@H](NS(=O)(=O)c2cn(C)c(C(=O)Nc3cc(F)c(F)c(F)c3)c2F)C(F)(F)C1` [Compound 98] is less than 100 nM; for `CCNC(=O)C(=O)N1CC[C@@H](NS(=O)(=O)c2c(F)c(C(=O)Nc3cc(F)c(F)c(F)c3)n3c2CCC3)C1` [Compound 45] it is less than 100 nM; for `Cn1cc(S(=O)(=O)N[C@@H]2CCN(S(=O)(=O)/C=C/c3ccccc3)C2)c(F)c1C(=O)Nc1ccc(F)c(F)c1` [Compound 14] it is 100 to 300 nM.
